The numbers were not newly measured in US20060198888A1, “Tolperisone-containing pharmaceutical preparation with controllable active-substance release for oral administration” (Sanochemia Pharmazeutika AG, priority 2004, published 2006), which cites them from elsewhere.

Read-outs that look alike come from different tables or passages of the source.

For data set [1] the following is noted: rat.
For data set [2] the following is noted: JP-A-53-40779.

With `Cc1ccc(C(=O)C(C)CN2CCCCC2)cc1` (stereo not drawn) [R(−) tolperisone], in data set [1], the “fraction converted by in-vivo inversion into S(+) tolperisone” value is given as “up to 20%”. Besides, the pharmacological effect result in data set [2] (listed as 1-tolperisone) is given as “vaso- or bronchodilatory effect”.
As for `Cc1ccc(C(=O)C(C)CN2CCCCC2)cc1` (stereo not drawn) [S(+) tolperisone], the “extent of in-vivo inversion into R(−) tolperisone” value in data set [1] is “up to 20%”. Moreover, in data set [2] (listed as d-tolperisone), the pharmacological effect result is “muscle-relaxing effect”.
